The subject of assay [1] is gram-positive and gram-negative bacteria. As to the kind of experiment: organism not typed. The text has this:
The gram-positive bacterial strains utilized were Streptococcus pyogenes (ATCC 19615) and Streptococcus mutans (isolate obtained from a patient at King Abdul-Aziz hospital). The gram-negative bacterial strains used included Salmonella typhimurium (ATCC 14028), Escherichia coli (ATCC 11775), Pseudomonas aeruginosa (ATCC 9027), Klebsiella oxytoca (ATCC 49131), Shigella sonnei (ATCC 25931), and Klebsiella pneumoniae (patient isolate). Tryptic soy broth (TSB) was used to grow all bacterial strain overnight, after which the bacteria were washed using phosphate-buffered saline (PBS, NaCl 8 g/L, KCl 0.2 g/L, Na2HPO4 1.4 g/L, KH2PO4 0.24 g/L), and then diluted in the same buffer with 1/1000 TSB to an OD600 nm of 0.08-0.1 (1×10^8) colony-forming units (CFU)/ml, which was determined after performing retrospective plate counts on tryptic soy agar. Unless otherwise noted, the experiments in the following examples employed this inoculum preparation apart from when minimum inhibitory and bactericidal concentrations were determined, which employed cells in Muller Hinton broth. […]
Mueller Hinton broth (MHB) comprising 0.01% v/v acetic acid (Sigma Aldrich; St Louis, Mo.) and 0.2% w/v bovine serum albumin (Sigma Aldrich). […] The treated plates were incubated at […] and optical densities were determined for each well at 0 minutes, 1, 2 and 3 hours and after an overnight incubation. […]

Assay [2] deals with Streptococcus mutans (isolate). As to the kind of experiment: microbe, parasite or virus in culture. The procedure: (§1) The minimum inhibitory concentration (MIC) is defined as the lowest concentration of an antimicrobial ingredient or agent that is bacteriostatic (prevents the visible growth of bacteria).
(§2) Mueller Hinton broth (MHB) comprising 0.01% v/v acetic acid (Sigma Aldrich; St Louis, Mo.) and 0.2% w/v bovine serum albumin (Sigma Aldrich). Equal concentrations of bacteria were plated in wells of standard tissue culture microplates at a density of 0.5×10^8 CFU ml^−1 in MHB per well. Treatments were equivalent volumes (50 μl) of NK-lysin peptides in concentrations of 0 to 150 μg/ml, or no NK-lysin peptides for control wells. The treated plates were incubated at […] and optical densities were determined for each well at 0 minutes, 1, 2 and 3 hours and after an overnight incubation.

Assay [3] has as its system Shigella sonnei (ATCC 25931). The experiment in a line: microbe, parasite or virus in culture. The procedure:
as §1, §2

The subject of assay [4] is Klebsiella oxytoca (ATCC 49131). The experiment in a line: microbe, parasite or virus in culture. The procedure: as §1, §2
For assay [5], the system named is Pseudomonas aeruginosa (ATCC 9027). The experiment in a line: microbe, parasite or virus in culture. The procedure: as §1, §2
In assay [6] the test system is Escherichia coli (ATCC 11775). The experiment in a line: microbe, parasite or virus in culture. The following applies: Escherichia coli, ATCC11775. The procedure: as §1, §2
For assay [7], the system named is Klebsiella pneumoniae (patient isolate). As to the kind of experiment: microbe, parasite or virus in culture. The procedure:
as §1, §2

The subject of assay [8] is Salmonella typhimurium (ATCC 14028). The experiment in a line: microbe, parasite or virus in culture. The following applies: Salmonella enterica. The procedure: as §1, §2
For assay [9], the system named is Streptococcus pyogenes (ATCC 19615). As to the kind of experiment: microbe, parasite or virus in culture. The procedure:
as §1, §2

Assay [10] relates to S. typhimurium (ATCC 14028). Type of assay: cell-based, Salmonella typhimurium. The following applies: discs on MH agar, overnight. The procedure:
Screening of NK-lysin peptides was carried out against gram-negative S. typhimurium (ATCC 14028) bacteria. Overnight cultivation of the bacteria was carried out at a temperature of 3TC. A bacterial suspension was created in 10 mM sodium phosphate buffer pH 7.0 having a density of (2×10^6 CFU ml^−1) and plated on Muller-Hinton (MH) agar plates to inoculate. After the plates were dry, antibiotics discs of various concentrations (0 to 150 μg/ml) of antibiotic or NK-lysin peptides were applied to the surface of the inoculated plates. The plates were cultured overnight at 3TC and observed for restriction of growth by determining the diameter of bacterial-free zones surrounding each disc. Ceftazidime antibiotic was employed as a positive control.

Where [11] appears, read: Pseudomonas aeruginosa, ATCC9027.
The mark [12] stands for this setting: Streptococcus pyogenes, ATCC19615.

≈ marks a conversion by molar mass, not a printed value.

With `NC[C@H]1O[C@H](O[C@H]2[C@H](O)[C@@H](O[C@H]3O[C@H](CO)[C@@H](O)[C@H](N)[C@H]3O)[C@H](N)C[C@@H]2N)[C@H](O)[C@@H](O)[C@@H]1O` [Kanamycin, kanamycin, reference compound], the MIC in assay [1] is 7.8 to 62.5 µg/mL (≈ 16.1 to 129 µM); in assay [2] (St. mutans (isolate)) it was 62.5 ± 0.023 µg/mL (≈ 129 µM); in assay [2] (Streptococcus mutans) it was 62.5 µg/mL (≈ 129 µM); in assay [3] (Sh. sonnei ATCC 25931) it was 7.81 ± 0.026 µg/mL (≈ 16.1 µM); in assay [3] (Shigella sonnei, ATCC25931, Sh. sonnei ATCC 25931), 7.8 µg/mL (≈ 16.1 µM); in [4] (K. oxytoca ATCC 49131), 31.25 ± 0.00 µg/mL (≈ 64.5 µM). The MIC in assay [4] (Klebsiella oxytoca, ATCC49131) worked out at 31.2 µg/mL (≈ 64.5 µM); in assay [5] (P.aeruginosa ATCC 9027), 62.5 ± 0.00 µg/mL (≈ 129 µM); in assay [5] (setting [11]), 62.5 µg/mL (≈ 129 µM); in assay [6], 15.62 ± 0.011 µg/mL (≈ 32.2 µM); in assay [7] (K.Pneumonia (isolate)), 31.25 ± 0.00 µg/mL (≈ 64.5 µM); in assay [7] (Klebsiella pneumoniae), 31.2 µg/mL (≈ 64.5 µM). Also, the values for the MIC in assay [8], in assay [9] (St. pyogenes ATCC 19615) and in assay [9] (setting [12]) were 62.5 µg/mL (≈ 129 µM), 62.5 ± 0.00 µg/mL (≈ 129 µM) and 62.5 µg/mL (≈ 129 µM), respectively. The MBC in [2] (Streptococcus mutans) is 62.5 ± 0.23 µg/mL (≈ 129 µM); in [3] (Shigella sonnei, ATCC25931), 7.81 ± 0.026 µg/mL (≈ 16.1 µM); in assay [4] (Klebsiella oxytoca, ATCC49131), 31.2 µg/mL (≈ 64.5 µM); in [5] (setting [11]), 62.5 µg/mL (≈ 129 µM); in assay [6] it was 15.6 µg/mL (≈ 32.2 µM); in assay [7] (Klebsiella pneumoniae), 31.2 µg/mL (≈ 64.5 µM). Further, the MBC in assay [8] and in assay [9] (setting [12]) was 62.5 µg/mL (≈ 129 µM) each time.

As for `CC(C)(O/N=C(\C(=O)N[C@@H]1C(=O)N2C(C(=O)[O-])=C(C[n+]3ccccc3)CS[C@H]12)c1csc(N)n1)C(=O)O` [ceftazidime, reference compound], the clear zone diameter in [10] is around 21 mm.

In turn, gentamicin [reference compound] showed a clear zone diameter in assay [10] of 28 mm.

Values taken from patent US20220305093A1, “NK-LYSIN PEPTIDE COMPOSITIONS AND METHODS FOR THEIR USE AS ANTIMICROBIAL/ANTIVIRAL AGENTS” (priority 2021, published 2022).
